Consider three compounds from US20250304547A1, “Sulfur-Containing Lipids” (NanoVation Therapeutics Inc., priority 2022, published 2025).

In one data set the test system is FVII gene. Particulars: mice, siRNA formulations of the amino lipid; cited from earlier work.
The nature of data set [1]: Particle size analysis of LNPs by dynamic light scattering. It is filed as physicochemical. Particulars: firefly luciferase mRNA LNP, ionizable lipid/DSPC/chol/PEG-DMG 50/10/38.5/1.5 mol %; for polydispersity index (PDI): N/P 6; for particle size (number-weighted average diameter): N/P 6, in PBS. As to the method: (§1) Lipids used in the formulation, nor-MC3, 4, DSPC, cholesterol, and PEG-DMG, were dissolved in ethanol at the appropriate ratios to a final concentration of 10 mM total lipid. Nucleic acid (mRNA) was dissolved in an appropriate buffer such as 25 mM sodium acetate pH 4 or sodium citrate pH 4 to a concentration necessary to achieve the appropriate amine-to-phosphate ratios. The aqueous and organic solutions were mixed using a rapid-mixing device as described in Kulkami et al., 2018, ACS Nano, 12:4787 and Kulkami et al., 2017, Nanoscale, 36:133347 (each incorporated herein by reference) at a flow rate ratio of 3:1 (v/v; respectively) and a total flow rate of 20 mL/min. The resultant mixture was dialyzed directly against 1000-fold volume of PBS pH 7.4. All formulations were concentrated using an Amicon™ centrifugal filter unit and analysed using the methods described below.
Particle size analysis of LNPs in PBS was carried out using backscatter measurements of dynamic light scattering with a Malvern Zetasizer™ (Worcestershire, UK). The reported particle sizes correspond to the number-weighted average diameters (nm). Total lipid concentrations were determined by extrapolation from the cholesterol content, which was measured using the Cholesterol E-Total Cholesterol Assay (Wako Diagnostics, Richmond, VA) as per the manufacturer's recommendations. Encapsulation efficiency of the formulations was determined using the Quant-iT RiboGreen™ Assay kit (Invitrogen, Waltham, MA). Briefly, the total mRNA content in solution was measured by lysing lipid nanoparticles in a solution of Tris-EDTA (TE) containing 2% Triton Tx-100, and free […] in solution (external to LNP) was measured based on the RiboGreen™ fluorescence in a TE solution without Triton. Total mRNA content in the formulation was determined using a modified Bligh-Dyer extraction procedure. Briefly, LNP formulations containing mRNA were dissolved in a mixture of chloroform, methanol, and PBS that results in a single phase and the absorbance at 260 nm measured using a spectrophotometer.

A short description of data set [2]: Encapsulation efficiency, Quant-iT RiboGreen assay. It is filed as physicochemical. Particulars: firefly luciferase mRNA LNP, ionizable lipid/DSPC/chol/PEG-DMG 50/10/38.5/1.5 mol %, N/P 6. Here is the method: as §1
Particle size analysis of LNPs in PBS was carried out using backscatter measurements of dynamic light scattering with a Malvern Zetasizer™ (Worcestershire, UK). […] Total lipid concentrations were determined by extrapolation from the cholesterol content, which was measured using the Cholesterol E-Total Cholesterol Assay (Wako Diagnostics, Richmond, VA) as per the manufacturer's recommendations. Encapsulation efficiency of the formulations was determined using the Quant-iT RiboGreen™ Assay kit (Invitrogen, Waltham, MA). […]

For another data set, the system named is liver. Nature of the data set: In vivo transfection of firefly luciferase mRNA-LNP, luciferase assay of liver. The following applies: CD-1 mice, intravenous, 4 hours post-administration, mRNA LNP 50/10/38.5/1.5 mol %, N/P 6. As to the method:
as §1
(§2) LNP-mRNA encoding firefly luciferase were injected intravenously (tail-vein) into 6-8 week old CD-1 mice. Four hours following injection, the animals were euthanized and the liver and spleen were isolated. Tissue was homogenized in Glo Lysis™ buffer and a luciferase assay performed using the Steady Glo Luciferase™ assay kit (as per manufacturers recommendations).

The next data set relates to spleen. Put plainly: In vivo transfection of firefly luciferase mRNA-LNP, luciferase assay of spleen. Particulars: CD-1 mice, intravenous, 4 hours post-administration, mRNA LNP 50/10/38.5/1.5 mol %, N/P 6. Here is the method: as §1, §2

Turning to `CCCCC/C=C\C/C=C\CCCCCCCCC1(CCCCCCCC/C=C\C/C=C\CCCCC)OCC(CCN(C)C)O1` (stereo not drawn) [KC2], the ED50 for FVII gene silencing with FVII gene was 0.1 mg/kg.
For the compound `CCCCCSCSCCCCCCCCC1(CCCCCCCCSCSCCCCC)OCC(CCN(C)C)O1` (stereo not drawn) [Lipid 4, 2-(2,2-bis(8-(((pentylthio)methyl)thio)octyl)-1,3-dioxolan-4-yl)-N,N-dimethyl-ethan-1-amine], in data set [1], the “polydispersity index (PDI)” value is recorded as “about 0.090” and the “particle size (number-weighted average diameter)” value is given as “about 50.0 nm”. In addition, the “entrapment / encapsulation efficiency” value in data set [2] was approximately 90%. Besides, in the data set on liver, the “luminescence intensity/mg of liver, relative to the nor-MC3 formulation” value is given as “trend was reversed in the liver”. In the data set with spleen, the “luminescence intensity/mg of spleen, relative to the nor-MC3 formulation” value is given as “higher luminescence intensity in the spleen”.
On to nor-MC3 [reference compound], for which, in data set [1], the “polydispersity index (PDI)” value is listed as “about 0.075” and the “particle size (number-weighted average diameter)” value is “about 39.9 nm”. Besides, the “entrapment / encapsulation efficiency” value in data set [2] turned out to be 94%.
